Laboratory results as given in the supplement of paper PMC10307832.

Tests used:
Assay in all cases: relative viability (nuclei count vs DMSO), 5 days (fraction); higher = more cells survive
[1] = compound: COc1cc2nc(N3CCCN(C)CC3)nc(NC3CCN(Cc4ccccc4)CC3)c2cc1OC + CS(=O)(=O)CCNCc1ccc(-c2ccc3ncnc(Nc4ccc(OCc5cccc(F)c5)c(Cl)c4)c3c2)o1 [Lapatinib] (partner 2 µM)
Method in brief: (§1)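 One day after seeding in 1536-well plates, lung cancer cell lines were dosed by pin tool. Dosing was either single-drug or a fixed anchor-drug dose plus five library-drug doses (not always all listed) in √10 steps. After 5 days, nuclei were stained in one fix-and-stain step and counted on 4× images, and relative viability is the nuclei count of treated wells over that of vehicle wells, given as the median of duplicate plates.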

AZD6482 + Olaparib = compound: Cc1cc([C@@H](C)Nc2ccccc2C(=O)O)c2nc(N3CCOCC3)cc(=O)n2c1 [AZD6482] + O=C(c1cc(Cc2n[nH]c(=O)c3ccccc23)ccc1F)N1CCN(C(=O)C2CC2)CC1 [Olaparib] (partner 8 µM)
Method in brief: as §1

AZD6482 + Crizotinib = compound: Cc1cc([C@@H](C)Nc2ccccc2C(=O)O)c2nc(N3CCOCC3)cc(=O)n2c1 [AZD6482] + C[C@@H](Oc1cc(-c2cnn(C3CCNCC3)c2)cnc1N)c1c(Cl)ccc(F)c1Cl [Crizotinib] (partner 1 µM)
Method in brief: as §1

AZD6482 + Decitabine = compound: Cc1cc([C@@H](C)Nc2ccccc2C(=O)O)c2nc(N3CCOCC3)cc(=O)n2c1 [AZD6482] + Nc1ncn([C@H]2C[C@H](O)[C@@H](CO)O2)c(=O)n1 [Decitabine] (partner 2 µM)
Method in brief: as §1

| Cell Line | relative viability ([1]; first compound 0.2 µM) | relative viability ([1]; first compound 0.6325 µM) | relative viability ([1]; first compound 2 µM) | relative viability ([1]; first compound 6.325 µM) | relative viability (AZD6482 + Olaparib; first compound 0.08 µM) | relative viability (AZD6482 + Olaparib; first compound 0.253 µM) | relative viability (AZD6482 + Olaparib; first compound 0.8 µM) | relative viability (AZD6482 + Olaparib; first compound 2.53 µM) | relative viability (AZD6482 + Olaparib; first compound 8 µM) | relative viability (AZD6482 + Crizotinib; first compound 0.08 µM) | relative viability (AZD6482 + Crizotinib; first compound 0.253 µM) | relative viability (AZD6482 + Crizotinib; first compound 0.8 µM) | relative viability (AZD6482 + Crizotinib; first compound 2.53 µM) | relative viability (AZD6482 + Crizotinib; first compound 8 µM) | relative viability (AZD6482 + Decitabine; first compound 0.08 µM) | relative viability (AZD6482 + Decitabine; first compound 0.253 µM) | relative viability (AZD6482 + Decitabine; first compound 0.8 µM) | relative viability (AZD6482 + Decitabine; first compound 2.53 µM) | relative viability (AZD6482 + Decitabine; first compound 8 µM) |
| --- | --- | --- | --- | --- | --- | --- | --- | --- | --- | --- | --- | --- | --- | --- | --- | --- | --- | --- | --- |
| LOU-NH91 | 0.803 | 0.812 | 0.731 | 0.693 | 0.851 | 0.917 | 0.898 | 0.595 | 0.755 | 0.709 | 0.725 | 0.74 | 0.564 | 0.563 | 0.753 | 0.828 | 0.788 | 0.661 | 0.7 |
| LU99A | 0.909 | 0.93 | 1.1 | 0.898 | 0.259 | 0.273 | 0.255 | 0.28 | 0.24 | 0.609 | 0.495 | 0.591 | 0.466 | 0.471 | 0.803 | 0.858 | 0.968 | 0.801 | 0.775 |
| LXF-289 | 0.854 | 0.878 | 0.886 | 0.907 | 1.02 | 1.05 | 1.11 | 0.986 | 0.918 | 0.813 | 0.837 | 0.898 | 0.794 | 0.736 | 0.356 | 0.422 | 0.36 | 0.356 | 0.369 |
| NCI-H23 | 1.02 | 1.03 | 1.37 | 1.02 | 0.26 | 0.371 | 0.411 | 0.266 | 0.247 | 0.444 | 0.426 | 0.481 | 0.369 | 0.417 | 0.309 | 0.288 | 0.32 | 0.312 | 0.304 |
| NCI-H322M | 0.573 | 0.642 | 0.621 | 0.605 | 0.671 | 0.761 | 0.749 | 0.494 | 0.701 | 0.769 | 0.826 | 0.79 | 0.627 | 0.741 | 0.657 | 0.617 | 0.674 | 0.537 | 0.603 |
| NCI-H358 | 0.449 | 0.554 | 0.49 | 0.347 | 0.535 | 0.554 | 0.624 | 0.282 | 0.52 | 0.514 | 0.592 | 0.566 | 0.417 | 0.383 | 0.246 | 0.218 | 0.237 | 0.185 | 0.189 |
| NCI-H460 | 0.9 | 0.979 | 0.902 | 0.487 | 0.335 | 0.394 | 0.435 | 0.216 | 0.327 | 0.874 | 0.644 | 0.99 | 0.6 | 0.471 | 0.445 | 0.38 | 0.618 | 0.452 | 0.395 |
| NCI-H520 | 0.892 | 0.894 | 0.92 | 0.3 | 0.295 | 0.266 | 0.262 | 0.162 | 0.185 | 0.623 | 0.615 | 0.523 |  | 0.4 | 0.418 | 0.331 | 0.344 | 0.198 | 0.244 |
| NCI-H596 | 1.1 | 0.563 | 1.24 | 0.837 | 0.596 | 0.68 | 1.01 | 0.737 | 0.598 | 0.792 | 0.824 | 1 | 0.943 | 0.871 | 0.865 | 0.937 | 0.972 | 1.01 | 0.946 |
| NCI-H647 | 1.16 | 0.967 | 1.11 | 0.417 | 0.544 | 0.482 | 0.554 | 0.373 | 0.419 | 0.902 |  | 0.748 | 0.479 | 0.648 | 0.374 | 0.406 | 0.302 | 0.236 | 0.361 |
| NCI-H650 | 0.731 | 0.839 | 1.3 | 0.692 | 0.315 | 0.364 | 0.337 | 0.31 | 0.268 | 0.635 |  | 0.786 | 0.442 | 0.47 | 0.318 | 0.292 | 0.378 | 0.33 | 0.317 |
| NCI-H661 | 0.568 | 0.503 | 0.68 | 0.563 | 0.733 | 0.857 | 0.83 | 0.719 | 0.729 |  | 1.03 | 1.02 |  | 0.971 | 0.557 | 0.569 | 0.571 | 0.498 | 0.422 |
| NCI-H727 | 0.769 | 0.901 | 0.838 | 0.543 | 0.681 | 0.666 | 0.66 |  | 0.669 | 0.684 | 0.971 | 0.864 |  | 0.824 | 0.951 | 0.85 | 1.02 |  | 0.798 |
| NCI-H838 | 0.948 | 1.11 | 1.13 | 0.918 | 0.631 | 0.712 | 0.651 | 0.433 | 0.395 | 0.593 | 0.824 | 0.689 | 0.48 | 0.583 | 0.436 | 0.442 | 0.433 | 0.428 | 0.364 |
| NCI-H1355 | 1.01 | 0.992 | 1.05 | 0.951 | 0.597 | 0.63 | 0.708 | 0.522 | 0.564 | 0.777 | 0.959 | 1.07 | 0.797 | 0.726 | 0.346 | 0.362 | 0.363 | 0.341 | 0.35 |
| NCI-H1437 | 0.754 | 0.888 | 0.966 | 0.698 | 0.644 | 0.672 | 0.651 | 0.599 | 0.557 | 0.921 | 0.949 | 1.02 | 0.788 | 0.872 | 0.572 | 0.523 | 0.607 | 0.572 | 0.407 |
| NCI-H1650 | 0.75 | 0.813 | 0.915 | 0.579 | 0.652 | 0.761 | 0.643 | 0.736 | 0.813 | 0.907 |  | 0.958 | 0.662 | 0.653 | 0.381 | 0.571 | 0.544 | 0.584 | 0.474 |
